Reference: patent publication US20260125360A1, “HERBICIDAL IMIDAZOLE COMPOUNDS” (SYNGENTA CROP PROTECTION AG, priority 2022, published 2026)

How the values were obtained:
Type in all cases: in vivo
Settings in all cases: 250 g/ha, evaluated after 13 days
[1] = tested on: Ipomoea hederacea (IPOHE); experiment: Post-emergence herbicide glasshouse test
How it was run: (§1)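 Spray: acetone/water 50:50 + 0.5% Tween 20, 250 g/ha unless stated; 1 d (pre) or 8 d (post) after sowing. Glasshouse 24/16° C, 14 h light, 65% RH, watered twice daily. Read-out at 13 d: % damage binned 1–5 (5=81-100%, 1=0-20%).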

[2] = tested on: Echinochloa crus-galli (ECHCG); experiment: Post-emergence herbicide glasshouse test
How it was run: as §1

[3] = tested on: Amaranthus palmeri (AMAPA); experiment: Post-emergence herbicide glasshouse test
How it was run: as §1

[4] = tested on: Amaranthus retoflexus (AMARE); experiment: Post-emergence herbicide glasshouse test
How it was run: as §1

[5] = tested on: Ipomoea hederacea (IPOHE); experiment: Pre-emergence herbicide glasshouse test
How it was run: as §1

[6] = tested on: Echinochloa crus-galli (ECHCG); experiment: Pre-emergence herbicide glasshouse test
How it was run: as §1

[7] = tested on: Amaranthus palmeri (AMAPA); experiment: Pre-emergence herbicide glasshouse test
How it was run: as §1

[8] = tested on: Amaranthus retoflexus (AMARE); experiment: Pre-emergence herbicide glasshouse test
How it was run: as §1

Compound	percentage damage caused to the plant, IPOHE (five-point scale) [1]	percentage damage caused to the plant, ECHCG (five-point scale) [2]	percentage damage caused to the plant, AMAPA (five-point scale) [3]	percentage damage caused to the plant, AMARE (five-point scale) [4]	percentage damage caused to the plant, IPOHE (five-point scale) [5]	percentage damage caused to the plant, ECHCG (five-point scale) [6]	percentage damage caused to the plant, AMAPA (five-point scale) [7]	percentage damage caused to the plant, AMARE (five-point scale) [8]
Cc1nnc(Cn2cc(C(F)(F)F)nc2-c2cnc(Cl)c(F)c2)o1 [Compound 1.181]	1 (1=0-20%)	1 (1=0-20%)	4 (4=61-80%)	4 (4=61-80%)	4 (4=61-80%)	3 (3=41-60%)	5 (5=81-100%)	5 (5=81-100%)
Cc1nc(Cn2cc(C(F)(F)F)nc2-c2cnc(Cl)c(F)c2)no1 [Compound 1.167]	4 (4=61-80%)	5 (5=81-100%)	5 (5=81-100%)	5 (5=81-100%)	5 (5=81-100%)	5 (5=81-100%)	5 (5=81-100%)	5 (5=81-100%)
Cc1nc(Cn2cc(C(F)(F)F)nc2-c2ccc(F)c(F)c2)no1 [Compound 1.168]	5 (5=81-100%)	5 (5=81-100%)	5 (5=81-100%)	5 (5=81-100%)	5 (5=81-100%)	5 (5=81-100%)	5 (5=81-100%)	5 (5=81-100%)
CCc1cc(Cn2cc(C(F)(F)F)nc2-c2ccc(Cl)nc2)no1 [Compound 1.046]	4 (4=61-80%)	4 (4=61-80%)	5 (5=81-100%)	5 (5=81-100%)	5 (5=81-100%)	5 (5=81-100%)	5 (5=81-100%)	5 (5=81-100%)
Cn1cnc(Cn2cc(C(F)F)nc2-c2cnc(Cl)c(F)c2)n1 [Compound 1.015, 2-chloro-5-[4-(difluoromethyl)-1-[(1-methyl-1,2,4-triazol-3-yl)methyl]imidazol-2-yl]-3-fluoro-pyridine]	5 (5=81-100%)	3 (3=41-60%)	5 (5=81-100%)	5 (5=81-100%)	5 (5=81-100%)	4 (4=61-80%)	5 (5=81-100%)	5 (5=81-100%)
N#Cc1ccc(Cn2cc(C(F)(F)F)nc2-c2ccc(C(F)(F)F)cc2)s1 [Compound 1.001]	3 (3=41-60%)	2 (2=21-40%)	4 (4=61-80%)	4 (4=61-80%)	2 (2=21-40%)	2 (2=21-40%)	5 (5=81-100%)	4 (4=61-80%)
FC(F)c1cc(Cn2cc(C(F)(F)F)nc2-c2ccc(Cl)nc2)no1 [Compound 1.059]	5 (5=81-100%)	5 (5=81-100%)	5 (5=81-100%)	5 (5=81-100%)	5 (5=81-100%)	5 (5=81-100%)	5 (5=81-100%)	5 (5=81-100%)
Cc1cc(Cn2cc(C(F)(F)F)nc2-c2cnc(F)c(Cl)c2)no1 [Compound 1.163]	4 (4=61-80%)	5 (5=81-100%)	5 (5=81-100%)	5 (5=81-100%)	5 (5=81-100%)	5 (5=81-100%)	5 (5=81-100%)	5 (5=81-100%)
